Data published in publication PMC11372837, “Albumin-Mediated Drug Uptake by Organic Anion Transporter 1/3 Is Real: Implications for the Prediction of Active Renal Secretion Clearance” (Molecular Pharmaceutics, 2024).
Several values for one entry are separate records, joined by “and”; a condition that tells them apart may be missing. Equal values may be shown once. Read-outs that look alike come from different tables or passages of the source.

What was measured:
[1] = target: human serum albumin (Homo sapiens, UniProt P02768); assay: Extent of albumin binding: high throughput equilibrium dialysis (fu,inc, Kd); format: in vitro ADME; details: mean ± SD; for Kd: estimated using eq 3 from measured fu,inc; for fraction unbound at 6 h: human, equilibrium dialysis 37 °C 6 h
Sequence of human serum albumin (P02768 25-609): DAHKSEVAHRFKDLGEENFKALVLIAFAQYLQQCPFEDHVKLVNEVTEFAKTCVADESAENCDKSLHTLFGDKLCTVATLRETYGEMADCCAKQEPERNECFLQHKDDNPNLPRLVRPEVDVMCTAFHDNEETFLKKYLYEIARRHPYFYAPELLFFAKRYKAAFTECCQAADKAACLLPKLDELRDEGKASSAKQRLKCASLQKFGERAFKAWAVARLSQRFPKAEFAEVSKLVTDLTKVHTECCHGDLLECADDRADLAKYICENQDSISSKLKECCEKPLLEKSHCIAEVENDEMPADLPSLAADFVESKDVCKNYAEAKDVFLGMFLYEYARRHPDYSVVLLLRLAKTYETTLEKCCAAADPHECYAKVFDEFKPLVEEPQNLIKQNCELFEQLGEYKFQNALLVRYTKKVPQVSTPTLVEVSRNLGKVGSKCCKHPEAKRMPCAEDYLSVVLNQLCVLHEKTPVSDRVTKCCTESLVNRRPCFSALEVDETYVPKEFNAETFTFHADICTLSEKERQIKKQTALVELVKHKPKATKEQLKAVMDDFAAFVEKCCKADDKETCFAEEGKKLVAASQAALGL
Procedure: Briefly, cellulose membranes with MWCO of 12–14 kDa were submerged in distilled water for 1 h, followed by 20% ethanol/distilled water for at least 20 min. Prior to the start of the experiment, cellulose membranes were rinsed in distilled water and submerged in blank DPBS for 15 min. The HTDialysis device was assembled according to the manufacturer’s instructions (https://www.htdialysis.com). Blank DPBS was first added to the receiver side of the dialysis membranes, followed by DPBS spiked with HSA and the OAT1/3 substrate to the donor side. Each HSA concentration was tested in triplicates. The HTDialysis device was sealed with an adhesive sealing film and incubated in a water bath at 37 °C for 6 h shaken at 150 rpm. Once the assay was completed, aliquots from both receiver and donor wells were transferred to a 96-well plate and stored at −80 °C until analysis. DPBS spiked with the OAT1/3 substrate from both before and after incubation was stored to assess the recovery and stability of the samples. To prepare the sample for analysis, donor and receiver samples were matrix-matched and quenched with ice-cold acetonitrile containing an internal standard (0.5 μM gemfibrozil or 0.05 μM buspirone).

[2] = tested on: OAT1/3; assay: Bottom-up IVIVE of CLint,sec, CLsec and CLr, relative expression factor (REF) approach; design: species or system human; details: for CLint,sec Predicted 0% HSA / CLint,sec Predicted 1% HSA / CLint,sec Predicted 4% HSA / CLsec Predicted 0% HSA / CLsec Predicted 1% HSA / CLsec Predicted 4% HSA: REF approach
Source text: (§1) The relative expression and relative activity factor (REF and RAF) are unitless scalers that account for in vivo versus in vitro differences in the abundance and activity of OAT1/3 and are used for IVIVE of in vitro CLint,u,active. REF was derived from the OAT1/3 expression ratio between the in vivo human kidney cortex to the in vitro ciPTEC-OAT1/3, as shown in eq 7: [drawing 8] 7 Absolute abundance of OAT1 and OAT3 in the human kidney cortex was previously quantified by our group using the filter-aided sample preparation protocol and global proteomic analysis.[44]

[3] = tested on: OAT1/3; assay: Bottom-up IVIVE of CLint,sec, CLsec and CLr, relative activity factor (RAF) approach; design: species or system human
Source text: as §1

[4] = in vivo, plasma renal clearance, clinical data; cited from earlier work
[5] = target: T1, OAT1 (Homo sapiens, UniProt Q4U2R8); assay: OAT1 uptake study in ciPTEC-OAT1; details: for OAT1 substrate status (uptake in ciPTEC-OAT1): control vs probenecid 300 μM
T1 sequence (Q4U2R8 1-563): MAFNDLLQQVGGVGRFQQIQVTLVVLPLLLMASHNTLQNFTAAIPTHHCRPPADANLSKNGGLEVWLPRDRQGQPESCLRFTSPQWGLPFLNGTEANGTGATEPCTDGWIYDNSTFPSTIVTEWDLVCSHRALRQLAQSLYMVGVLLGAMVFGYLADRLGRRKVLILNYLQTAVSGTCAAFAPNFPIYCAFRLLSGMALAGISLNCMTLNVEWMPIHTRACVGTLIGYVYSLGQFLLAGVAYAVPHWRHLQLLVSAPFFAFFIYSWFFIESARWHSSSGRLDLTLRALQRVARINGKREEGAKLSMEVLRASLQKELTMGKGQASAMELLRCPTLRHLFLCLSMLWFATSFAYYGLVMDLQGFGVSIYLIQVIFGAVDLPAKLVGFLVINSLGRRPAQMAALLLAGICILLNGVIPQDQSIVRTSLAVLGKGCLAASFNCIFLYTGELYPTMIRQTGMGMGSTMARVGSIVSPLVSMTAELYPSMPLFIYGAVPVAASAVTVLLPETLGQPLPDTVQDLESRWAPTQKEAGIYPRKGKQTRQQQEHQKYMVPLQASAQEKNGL

[6] = target: T2, OAT3 (Homo sapiens, UniProt Q8TCC7); assay: OAT3 uptake study in ciPTEC-OAT3; details: for ratio of CLint,u,active (R) (HSA/control) 1%: OAT3, 1% HSA vs control; for ratio of CLint,u,active (R) (HSA/control) 4%: OAT3, 4% HSA vs control; for Vb,max OAT3, Active and Passive Uptake: eq 4 fitted to CLint,u; for Vb,max OAT3, Active and Passive Uptake / Vb,max OAT3, Active Uptake Only: mean ± S.D.; for Vb,max OAT3, Active Uptake Only: eq 4 fitted to CLint,u,active
T2 sequence (Q8TCC7 1-542): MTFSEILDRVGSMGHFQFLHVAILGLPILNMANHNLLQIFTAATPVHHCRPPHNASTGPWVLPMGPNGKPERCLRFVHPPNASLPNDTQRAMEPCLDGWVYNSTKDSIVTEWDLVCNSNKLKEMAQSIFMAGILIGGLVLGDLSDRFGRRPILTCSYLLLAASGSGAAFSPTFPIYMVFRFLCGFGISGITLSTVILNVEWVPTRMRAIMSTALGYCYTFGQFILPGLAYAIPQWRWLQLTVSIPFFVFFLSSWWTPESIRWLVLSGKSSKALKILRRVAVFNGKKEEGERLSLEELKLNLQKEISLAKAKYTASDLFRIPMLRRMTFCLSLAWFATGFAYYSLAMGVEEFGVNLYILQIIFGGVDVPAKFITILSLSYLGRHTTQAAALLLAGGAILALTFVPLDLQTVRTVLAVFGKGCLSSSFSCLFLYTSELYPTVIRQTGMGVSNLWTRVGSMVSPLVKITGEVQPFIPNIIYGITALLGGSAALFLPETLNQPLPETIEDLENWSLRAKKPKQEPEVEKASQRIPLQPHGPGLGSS

[7] = Observed in vivo (clinical) renal, secretion and intrinsic secretion clearance; details: in vivo; for CLint,sec Observed: back-calculated from clinical data
[8] = human, in vivo
[9] = 1% human serum albumin in DPBS, 1% HSA, read-out: fu,inc (1%)
[10] = 4% HSA in DPBS, 4% HSA, read-out: fu,inc (4%)

Row | SMILES | Kd [1] [µM] | fraction unbound at 6 h [1, 9] | fraction unbound at 6 h [1, 10] | CLint,sec Predicted 0% HSA [2] [L/h] | CLint,sec Predicted 1% HSA [2] [L/h] | CLint,sec Predicted 4% HSA [2] [L/h] | CLsec Predicted 0% HSA [2] [L/h] | CLsec Predicted 1% HSA [2] [L/h] | CLsec Predicted 4% HSA [2] [L/h] | CLint,sec Predicted 0% HSA [3] [L/h] | CLint,sec Predicted 1% HSA [3] [L/h] | CLint,sec Predicted 4% HSA [3] [L/h] | CLsec Predicted 0% HSA [3] [L/h] | CLsec Predicted 1% HSA [3] [L/h] | CLsec Predicted 4% HSA [3] [L/h] | CLr Observed [4] [L/h] | OAT1 substrate status (uptake in ciPTEC-OAT1) [5] | ratio of CLint,u,active (R) (HSA/control) 1% [6] | ratio of CLint,u,active (R) (HSA/control) 4% [6] | Vb,max OAT3, Active and Passive Uptake [6] [pmol/min/mg] | other results
1 | CCCc1nc(C(C)(C)O)c(C(=O)O)n1Cc1ccc(-c2ccccc2-c2nnn[nH]2)cc1 [olmesartan] | 1.43 ± 0.1 | 0.011 ± 0.001 | 0.002 ± 0.0002 | 7.92 | 85.2 | 284 | 0.02 | 0.22 | 0.74 | 34.2 | 355 | 976 | 0.09 | 0.92 | 2.40 | 0.61 | dual OAT1/3 substrates | 10.5 ± 2.3 | 28 and 28.1 ± 3.0 | 46.2 ± 12.3 | Predicted in vivo percentage transported via OAT1 (versus OAT3) ([2]; 4% HSA, REF scaler): 33.1%; Predicted in vivo percentage transported via OAT1 (versus OAT3) ([2]; control phase (0% HSA)): 7.9%; ratio of CLint,u,active (R) (HSA/control) 1% ([5]; OAT1, 1% HSA vs control, unbound concentration kept constant): 17.9 ± 4.0; ratio of CLint,u,active (R) (HSA/control) 4% ([5]; OAT1, 4% HSA vs control, unbound concentration kept constant): 122 and 122 ± 42; Vb,max OAT1, Active and Passive Uptake ([5]; eq 4 fitted to CLint,u, mean ± S.D.): 75.7 ± 15.5 pmol/min/mg; Vb,max OAT1, Active Uptake Only ([5]; eq 4 fitted to CLint,u,active, Kd,m fixed from OAT3 data, mean ± S.D.): 72.7 ± 15.0 pmol/min/mg; OAT3 substrate status (uptake in ciPTEC-OAT3) ([6]; control vs probenecid 300 μM): dual OAT1/3 substrates; Vb,max OAT3, Active Uptake Only [6]: 44.2 ± 12.3 pmol/min/mg; CLint,sec Observed [7]: 229 L/h; CLint,sec Observed ([7]; listed as Olmesartan): 228 L/h; CLsec Observed ([7]; plasma secretion clearance): 0.59 L/h
2 | CCCN(CCC)S(=O)(=O)c1ccc(C(=O)O)cc1 [probenecid] |  |  |  |  |  |  |  |  |  |  |  |  |  |  |  |  |  |  |  |  | Effect on OAT3-mediated uptake of the substrates ([6]; probenecid 300 μM, 0% HSA): significantly reduced
3 | CC(C)c1nc(N(C)S(C)(=O)=O)nc(-c2ccc(F)cc2)c1/C=C/[C@@H](O)C[C@@H](O)CC(=O)O [rosuvastatin] | 127 ± 5.6 | 0.435 ± 0.041 | 0.18 ± 0.009 | 6.80 | 13.6 | 17.7 | 0.78 | 1.52 | 1.96 | 34.3 | 68.3 | 89.0 | 3.64 | 6.66 | 8.27 | 11.9 | did not show any appreciable uptake | 2.12 ± 0.58 | 2.7 and 2.68 ± 0.62 | 290 ± 101 | CLint,sec Observed [8]: 130 L/h; CLsec Observed [8]: 11.1 L/h; Vb,max OAT3, Active Uptake Only [6]: 281 ± 96 pmol/min/mg
